Reference: patent US9321750B2, “ROR modulators and their uses” (INNOV17 LLC, priority 2012, dated 2016)
Like-named read-outs stand apart in the source and are kept apart here.

Columns and labels:
IL-22 [1] = experiment: TH17 cytokine inhibition as measured by ELISA: IL-22; type: cell-based; conditions: 120 h; human TH17 cells, 5 days differentiation, ELISA of supernatant
Experimental: (§1) Peripheral blood mononuclear cells (PBMCs) were sourced from freshly prepared leukocyte enriched plasma (buffy coat) from healthy volunteers from which PBMCs were isolated by density gradient centrifugation using Ficoll-Paque™ PLUS (GE Healthcare). Naïve CD4+ T cells were isolated using the Naïve CD4+ T cell Isolation Kit II (Miltenyi Biotec) as per manufacturer's instructions. CD4+ T cells were plated at 5×10^4 cells/well in 96 well plates pre-coated with immobilized human (h)-αCD3 antibody (eBioscience) then differentiated to TH17 cells using h-αCD28, h-αIFNγ, h-αIL4, h-IL6, h-IL23, h-IL1β, h-TGFβ1 (eBioscience) and maintained in a cell culture incubator at 37° C. with 5% CO2 in TexMACS Medium (Miltenyi Biotec) supplemented with 1% Penicillin/Streptomycin (Lonza) over 5 days.
(§2) Human CD4+ T cells were differentiated to TH17 cells as described in the presence or absence of various concentrations of compounds in a final concentration of 0.1% DMSO in TexMACS medium. Supernatants were collected and stored at −20° C. until they were to be assayed for IL-17A, IL-17F, IL-17AF, IL-21 and/or IL-22 levels as determined by Ready-Set-Go ELISA kits (eBioscience) as per manufacturer's instructions. Endpoint absorbance was read at 450 nm and 570 nm according to manufacturer's instructions (eBioscience) using a microplate reader (Perkin Elmer). The percentage of cytokine inhibition was calculated with reference to DMSO treated cells and the IC50s were determined by GraphPad Prism software and presented in the table below.

IL-17A [2] = experiment: Real-time qRT-PCR in TH17 cells: IL-17A gene expression; type: cell-based, human; parameters: key: A: No change in gene expression observed relative to DMSO treated Th17 cells; B: Decreased gene expression observed relative to DMSO treated Th17 cells; C: Increased gene expression observed relative to DMSO treated Th17 cells
Experimental: as §1
(§3) RNA was isolated from TH17 cells and cDNA was synthesized using the Verso cDNA kit (Thermo Scientific) as per manufacturer's instructions. IL-17A, IL-17F, IL-21, IL-22, G-CSF, IL-23R and FOXP3 gene expression were determined for compound treated and untreated TH17 cell samples using Solaris qPCR Gene expression assays (Thermo Scientific) with an iCycler iQ Real-Time PCR Detection System (Bio-Rad). Individual gene expression was normalized to a panel of six reference genes (ACTB, TBP, HPRT1, PGK1, TFRC and PPIA) (Thermo Scientific) and analyzed by REST 2009 (Qiagen) in accordance to MIQE guidelines (Bustin et al. (2009) Clin. Chem, 55:611-622). The effects of compounds on TH17 cytokine mRNA levels are presented as fold change in gene expression of compound treated TH17 cells relative to DMSO treated cells in the table below.

IL-17A [3] = experiment: TH17 cytokine inhibition as measured by ELISA: IL-17A; type: cell-based; conditions: 120 h; human TH17 cells, 5 days differentiation, ELISA of supernatant
Experimental: as §1, §2

RORγ LBD = RORγ LBD (Homo sapiens (Human), UniProt P51449); experiment: RORγ LBD binding (Human RORγ Assay System, INDIGO Biosciences); conditions: 0.5% DMSO
Experimental: Compound binding to the human RORγ LBD was assessed using the Human RORγ Assay System (INDIGO Biosciences Inc.) as per manufacturer's instructions.

IL-22 [4] = experiment: Real-time qRT-PCR in TH17 cells: IL-22 gene expression; type: cell-based, human; parameters: key: A: No change in gene expression observed relative to DMSO treated Th17 cells; B: Decreased gene expression observed relative to DMSO treated Th17 cells; C: Increased gene expression observed relative to DMSO treated Th17 cells
Experimental: as §1, §3

IL-21 [5] = experiment: Real-time qRT-PCR in TH17 cells: IL-21 gene expression; type: cell-based, human; parameters: key: A: No change in gene expression observed relative to DMSO treated Th17 cells; B: Decreased gene expression observed relative to DMSO treated Th17 cells; C: Increased gene expression observed relative to DMSO treated Th17 cells
Experimental: as §1, §3

RORα LBD = RORα LBD (Homo sapiens (Human), UniProt P35398); experiment: TR-FRET co-activator D22 interaction with RORα LBD; type: biochemical
Excerpt: The Time-Resolved Fluorescence Resonance Energy Transfer (TR-FRET) assay kit (Life Technologies) was used to measure compound efficacy to disrupt or enhance ligand-mediated interaction of the co-activator and co-repressor peptides with the purified GST-tagged (i) RORγ LBD or (ii) […]. The RORγ LBD and RORα LBD each have a basal level of interaction with the co-activator D22 or co-repressor NCoR1-D2 in the absence of ligand, thus it is possible to identify compounds that inhibit or induce RORγ and/or RORα co-activator/co-repressor interactions, thus determining RORα, RORγ, or RORα/RORγ compound selectivity. The assay was performed as per manufacturer's instructions and TR-FRET was assessed 2 and 20 hours post-assay initiation. Compounds were identified to (i) have no impact on either co-activator displacement or […] from the assessed LBD (ii) promote co-activator displacement from the assessed LBD (iii) promote co-repressor recruitment to the assessed LBD or (iv) concurrently promote co-activator displacement from the assessed LBD and co-repressor recruitment to the assessed LBD.

IL-17AF = experiment: TH17 cytokine inhibition as measured by ELISA: IL-17AF; type: cell-based; conditions: 120 h; human TH17 cells, 5 days differentiation, ELISA of supernatant
Experimental: as §1, §2

IL-21 [6] = experiment: TH17 cytokine inhibition as measured by ELISA: IL-21; type: cell-based; conditions: 120 h; human TH17 cells, 5 days differentiation, ELISA of supernatant
Excerpt: Peripheral blood mononuclear cells (PBMCs) were sourced from freshly prepared leukocyte enriched plasma (buffy coat) from healthy volunteers from which PBMCs were isolated by density gradient centrifugation using Ficoll-Paque™ PLUS (GE Healthcare). Naïve CD4+ T cells were isolated using the Naïve CD4+ T cell Isolation Kit II (Miltenyi Biotec) as per manufacturer's instructions. […]
as §2

[7] = 2 hr, read-out: RORα EC50 D22 co-activator displacement 2 hr
[8] = 20 hr, read-out: RORα EC50 D22 co-activator displacement 20 hr

RORα LBD, sequence (P35398 272-510): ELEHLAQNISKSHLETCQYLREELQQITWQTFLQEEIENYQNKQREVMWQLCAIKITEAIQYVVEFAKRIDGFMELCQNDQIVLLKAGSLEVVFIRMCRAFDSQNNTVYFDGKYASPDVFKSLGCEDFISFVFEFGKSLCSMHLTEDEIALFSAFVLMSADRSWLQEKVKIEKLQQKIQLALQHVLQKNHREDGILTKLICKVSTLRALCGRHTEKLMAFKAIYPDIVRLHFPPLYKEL
RORγ LBD, sequence (P51449 269-508): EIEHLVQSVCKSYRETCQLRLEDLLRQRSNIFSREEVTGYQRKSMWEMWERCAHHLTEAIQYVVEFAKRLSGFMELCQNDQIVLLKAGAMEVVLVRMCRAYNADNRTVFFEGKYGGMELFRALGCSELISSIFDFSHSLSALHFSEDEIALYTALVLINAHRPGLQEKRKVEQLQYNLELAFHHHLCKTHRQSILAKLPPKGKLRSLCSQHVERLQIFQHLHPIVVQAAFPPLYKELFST

| IC50 (IL-21 [6]) [µM] | Compound | IC50 (IL-22 [1]) [µM] | Fold change in mRNA level of compound treated TH17 cells relative to DMSO treated cells IL-17A (IL-17A [2]) | IC50 (IL-17A [3]) [µM] | IC50 (RORγ LBD) [µM] | Fold change in mRNA level of compound treated TH17 cells relative to DMSO treated cells IL-22 (IL-22 [4]) | Fold change in mRNA level of compound treated TH17 cells relative to DMSO treated cells IL-21 (IL-21 [5]) | EC50 (RORα LBD; [7]) [µM] | EC50 (RORα LBD; [8]) [µM] | IC50 (IL-17AF) [µM] |
| --- | --- | --- | --- | --- | --- | --- | --- | --- | --- | --- |
|  | CC(=O)Nc1ccc2c(c1)CCCN2Cc1ccc(C(O)(C(F)(F)F)C(F)(F)F)cc1 [Example 2, N-(1-(4-(1,1,1,3,3,3-hexafluoro-2-hydroxypropan-2-yl)benzyl)-1,2,3,4-tetrahydroquinolin-6-yl)acetamide] | < 10 | A | < 10 | < 10 | A | A | < 30 | > 30 | < 10 |
| < 10 | CC(=O)Nc1ccc2c(c1)CCN2Cc1ccc(C(O)(C(F)(F)F)C(F)(F)F)cc1 [Example 4, N-(1-(4-(1,1,1,3,3,3-hexafluoro-2-hydroxypropan-2-yl)benzyl)indolin-5-yl)acetamide] | < 10 | B | < 10 | < 10 | C | B | > 30 | > 30 | < 10 |
|  | CS(=O)(=O)Nc1ccc2c(c1)CCCN2Cc1ccc(C(O)(C(F)(F)F)C(F)(F)F)cc1 [Example 5, N-(1-(4-(1,1,1,3,3,3-hexafluoro-2-hydroxypropan-2-yl)benzyl)-1,2,3,4-tetrahydroquinolin-6-yl)methanesulfonamide] | < 10 | B | < 10 | < 10 | A | B | < 30 | < 30 |  |
